Drawing on patent publication US9133131B2 (Purdue Pharma L.P., priority 2011, dated 2015), this text covers IC50, Ki and Kd for 12 molecules.

Some results are limits rather than exact numbers.

In one assay the target is human Nav1.7 (Homo sapiens (Human), UniProt Q15858). Description: FLIPR sodium dye assay for sodium channel blocking activity. As to conditions: recombinant human Nav1.7 in HEK293 cells. Type of assay: cell-based. From the text:
For dominant selection of the Nav1.7-expressing clones, the expression plasmid co-expressed the neomycin resistance gene. […] Recombinant beta and gamma subunits were not introduced into this cell line. Additional cell lines expressing recombinant Nav1.7 cloned from other species can also be used, alone or in combination with various beta subunits, gamma subunits or chaperones.
Cell maintenance: Unless otherwise noted, cell culture reagents were purchased from Mediatech of Herndon, Va. The recombinant Nav1.7/HEK293 cells were routinely cultured in growth medium consisting of Dulbecco's […] essential medium containing 10% fetal bovine serum (FBS, Hyclone, Thermo Fisher Scientific, Logan, Utah), 100 U/mL penicillin, 100 μg/mL streptomycin, 2-4 mM L-glutamine, and […] G418. For natural, non-recombinant cell lines, the selective antibiotic was omitted, and additional media formulations can be applied as needed.
The intensity of this emission, but not the wavelength range, is increased when the dye is exposed to Na^+ ions, which it can bind with partial selectivity. Cells expressing Nav1.7 or other sodium channels were loaded with the CoroNa™ Green dye immediately in advance of the fluorescence assay, and then, after agonist stimulation, the mobilization of Na^+ ions was detected as the Na^+ ions flowed from the extracellular fluid into the cytoplasm through the activated sodium channel pores. The dye was stored in the dark as a lyophilized powder, and then an aliquot was dissolved immediately before the cell loading procedure, according to the instructions of the manufacturer to a stock concentration of 10 mM in DMSO. It was then diluted in the assay buffer to a 4× concentrated working solution, so that the final concentration of dye in the cell loading buffer was 5 μM.
These scorpion toxins inhibit the fast inactivation of their cognate target channels. Stock solutions of the agonists were prepared to 40 mM in DMSO (veratridine) and 1 mg/mL in dH2O (scorpion venom), and then diluted to make a 4× or 2× stock (depending on the particular assay) in assay buffer, the final concentration being 100 μM (veratridine) and 10 μg/mL (scorpion venom). Both of the agonists were purchased from Sigma Aldrich, St. Louis, Mo.
Test Compounds: Test compounds were dissolved in DMSO to yield 10 mM stock solutions. […] If a particular test article appeared to be especially potent, then the concentration curve was adjusted, e.g., to 10-fold lower concentrations, in order to perform the dose-response in a more relevant concentration range. Compound dilutions were added during the dye-loading and pre-stimulation step, and then again during the fluorescence assay, early in the kinetic read.
Data Analysis: The data were analyzed according to methods known to those skilled in the art or using the GraphPad® Prism version 4.0 or higher, Program (available from GraphPad Software, San Diego, Calif.) to determine the IC50 value for the test article. At least one standard reference compound was evaluated during each experiment.
FLIPR® or FLIPR^TETRA® sodium dye assay with KCl and test article pre-incubation: Cells were prepared by plating the recombinant HEK293 cells or other host cells expressing either recombinant or non-recombinant, native, Nav1.7 alpha subunit, alone or in combination with various beta and gamma subunits at a density of ˜40,000 cells/well into a 96-well black, clear-bottom, PDL-coated plate. The assay can be adapted to 384-well or 1,536-well format, if desired, using proportionately less cells and media. The plate was then incubated in growth media, with or without selective antibiotic, overnight at 37° C. at 5% CO2, 95% humidity, in preparation for the assay. For counter-screens of other voltage-gated sodium channels, the procedure was very similar, though optimal densities of cells, media and subsequent assay components can be fine-tuned for the particular cell line or isoform.

A further assay addresses hNav1.7 (Homo sapiens (Human), UniProt Q15858). Put plainly: Electrophysiology (EP) whole-cell patch clamp assay. As to conditions: hNav1.7 HEK-293 cells; for Ki: affinity for the inactivated state of the channel, read-out: Nav1.7 Activity EP assay Ki; for Kd: resting block dissociation constant, read-out: Nav1.7 Activity EP assay Kr. Type of assay: cell-based. On the procedure: Cells: The hNav1.7 expressing HEK-293 cells were plated on 35 mm culture dishes pre-coated with poly-D-lysine in standard DMEM culture media (Mediatech, Inc., Herndon, Va.) and incubated in a 5% CO2 incubator at 37° C. Cultured cells were used approximately 12-48 hours after plating.
Electrophysiology: On the day of experimentation, the 35 mm dish was placed on the stage of an inverted microscope equipped with a perfusion system that continuously perfuses the culture dish with fresh recording media. A gravity driven superfusion system was used to apply test solutions directly to the cell under evaluation. This system consists of an array of glass pipette glass connected to a motorized horizontal translator. The outlet of the shooter was positioned approximately 100 μm from the cell of interest.
Whole cell currents were recorded using the whole-cell patch clamp configuration using an Axopatch 200B amplifier (Axon Instruments, Foster City Calif.), 1322A A/D converter (Axon Instruments) and pClamp software (v. 8; Axon Instruments) and stored on a personal computer. Gigaseals were formed and the whole-cell configuration was established in voltage clamp mode, and membrane currents generated by hNav1.7 were recorded in gap-free mode. Borosilicate glass pipettes have resistance values between 1.5 and 2.0 MΩ when filled with pipette solution and series resistance (<5 MΩ) was compensated 75-80%. Signals were sampled at 50 kHz and low pass filtered at 3 kHz.
Voltage protocols: After establishing the whole-cell configuration in voltage clamp mode, voltage protocols were run to establish the 1) test potential, 2) holding potential, and 3) the conditioning potential for each cell.
After establishing the whole-cell configuration in voltage clamp mode, a standard I-V protocol was run to determine the potential at which the maximal current (Imax) is elicited. This potential was the test potential (Vt). To determine a conditioning potential at which 100% of channels were in the inactivated state, a standard steady-state inactivation (SSIN) protocol was run using a series of fifteen 100 ms-long depolarizing prepulses, incrementing in 10 mV steps, immediately followed by a 5 ms testing pulse, Vt, to Vmax. This protocol also permitted determination of the holding potential at which all channels are in the resting state.
For compounds causing significant retardation of recovery from inactivation, an estimate of the affinity for the inactivated state of the channel (Ki) was generated using the following protocol. From the negative, no residual inactivation, holding potential, the cell was depolarized to the conditioning voltage for 2-5 seconds, returned to the negative holding potential for 10-20 ms to relieve fast inactivation and then depolarized to the test potential for ˜15 ms. This voltage protocol was repeated every 10-15 seconds, first to establish a baseline in the absence of the test compound, then in the presence of the test compound.
After a stable baseline was established, the test compound was applied and block of the current elicited by the test pulse assessed. In some cases, multiple cumulative concentrations were applied to identify a concentration that blocked between 40-60% of this current. Washout of the compound was attempted by superfusing with control solution once steady-state block was observed. An estimate of the Ki was calculated as follows: Ki=[drug]*{FR/(1−FR)}, Eq. 1
where [drug] is the concentration of a drug, and FR=I(after drug)/I(control), Eq. 2 where I is the peak current amplitude. If multiple concentrations were used, Ki was determined from the fit of a logistic equation to FRs plotted against corresponding drug concentrations.
In the alternative, the voltage clamp protocol to examine hNav1.7 currents was as follows. […]

Sequence of hNav1.7 (Q15858 other isoform, or with tags, fused parts or gaps): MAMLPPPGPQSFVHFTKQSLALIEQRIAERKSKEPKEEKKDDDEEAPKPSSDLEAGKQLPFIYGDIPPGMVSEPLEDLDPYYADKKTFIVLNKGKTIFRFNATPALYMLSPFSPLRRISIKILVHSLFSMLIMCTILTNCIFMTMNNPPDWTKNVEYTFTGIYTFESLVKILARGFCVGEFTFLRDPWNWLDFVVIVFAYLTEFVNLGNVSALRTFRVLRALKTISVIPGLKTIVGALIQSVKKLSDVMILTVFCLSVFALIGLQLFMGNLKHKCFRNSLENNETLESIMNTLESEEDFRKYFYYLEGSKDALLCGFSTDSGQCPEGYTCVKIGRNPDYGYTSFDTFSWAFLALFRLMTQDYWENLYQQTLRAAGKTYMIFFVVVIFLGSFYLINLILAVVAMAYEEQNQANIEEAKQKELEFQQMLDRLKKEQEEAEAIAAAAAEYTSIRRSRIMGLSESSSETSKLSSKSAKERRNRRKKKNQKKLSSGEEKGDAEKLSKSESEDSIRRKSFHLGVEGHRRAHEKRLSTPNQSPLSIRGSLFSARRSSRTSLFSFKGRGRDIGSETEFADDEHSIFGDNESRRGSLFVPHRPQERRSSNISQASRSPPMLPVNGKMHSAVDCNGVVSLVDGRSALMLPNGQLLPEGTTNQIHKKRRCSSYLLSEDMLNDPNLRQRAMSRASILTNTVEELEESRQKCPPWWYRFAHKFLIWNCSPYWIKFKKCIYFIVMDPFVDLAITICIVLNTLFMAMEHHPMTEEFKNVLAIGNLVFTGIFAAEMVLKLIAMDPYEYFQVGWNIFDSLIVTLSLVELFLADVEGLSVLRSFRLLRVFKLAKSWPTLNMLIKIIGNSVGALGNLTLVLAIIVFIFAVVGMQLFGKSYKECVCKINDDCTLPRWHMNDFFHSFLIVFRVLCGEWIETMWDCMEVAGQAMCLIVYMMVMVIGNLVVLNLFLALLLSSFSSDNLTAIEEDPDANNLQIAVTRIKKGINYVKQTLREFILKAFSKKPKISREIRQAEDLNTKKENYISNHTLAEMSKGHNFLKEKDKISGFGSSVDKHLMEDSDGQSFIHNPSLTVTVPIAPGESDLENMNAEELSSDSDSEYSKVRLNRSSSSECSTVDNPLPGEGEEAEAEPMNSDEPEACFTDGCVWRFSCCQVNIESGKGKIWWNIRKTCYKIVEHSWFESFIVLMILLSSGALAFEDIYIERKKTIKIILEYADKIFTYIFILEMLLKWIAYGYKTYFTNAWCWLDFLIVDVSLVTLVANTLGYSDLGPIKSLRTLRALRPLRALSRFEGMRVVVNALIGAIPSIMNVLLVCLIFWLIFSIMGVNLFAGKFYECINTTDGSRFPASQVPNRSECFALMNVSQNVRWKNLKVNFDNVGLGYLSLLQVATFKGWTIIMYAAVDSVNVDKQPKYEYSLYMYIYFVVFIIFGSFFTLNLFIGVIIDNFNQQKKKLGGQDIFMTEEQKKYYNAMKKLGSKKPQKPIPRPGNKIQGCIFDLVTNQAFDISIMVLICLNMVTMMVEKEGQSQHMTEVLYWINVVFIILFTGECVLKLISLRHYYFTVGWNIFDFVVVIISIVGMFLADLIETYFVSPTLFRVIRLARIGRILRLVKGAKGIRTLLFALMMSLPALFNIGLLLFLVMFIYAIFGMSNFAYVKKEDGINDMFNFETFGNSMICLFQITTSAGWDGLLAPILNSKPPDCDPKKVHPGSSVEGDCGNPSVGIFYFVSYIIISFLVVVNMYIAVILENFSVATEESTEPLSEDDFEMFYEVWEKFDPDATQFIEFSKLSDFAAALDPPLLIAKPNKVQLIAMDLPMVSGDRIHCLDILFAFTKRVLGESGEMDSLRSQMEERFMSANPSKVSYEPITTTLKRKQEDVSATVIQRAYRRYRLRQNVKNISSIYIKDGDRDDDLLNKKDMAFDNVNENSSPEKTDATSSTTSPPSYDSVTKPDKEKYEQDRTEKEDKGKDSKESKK
Sequence of human Nav1.7 (Q15858 other isoform, or with tags, fused parts or gaps): as above

For `N#Cc1cc(Oc2ccc(-c3nc(C(N)=O)cc([C@H](O)CO)n3)cc2)ccc1C(F)(F)F` [compound 11], the IC50 on human Nav1.7 turned out to be 279 ± 112 nM. Besides, at hNav1.7, the Ki turned out to be 147 ± 30 nM and the Kd is 2010 ± 310 nM.
As for `NC(=O)c1cc([C@H](O)CO)nc(-c2ccc(Oc3ccc(C(F)(F)F)cn3)cc2)n1` [compound 19], the concentration for half-maximal inhibition (IC50) on human Nav1.7 stood at 325 nM.
`NC(=O)c1cc([C@H](O)CO)nc(-c2ccc(Oc3ccc(C(F)(F)F)cc3)cc2)n1` [compound 17]: the IC50 at human Nav1.7 was 133 ± 26 nM.
Take `C[C@H](NC(=O)c1cc([C@H](O)CO)nc(-c2ccc(Oc3ccc(F)cc3)cc2)n1)C(=O)O` [compound 15]: at human Nav1.7, the IC50 is over 20000 nM.
On to `N#Cc1ccc(Oc2ccc(-c3nc(C(N)=O)cc([C@H](O)CO)n3)cc2)cc1C(F)(F)F` [compound 13], for which the half-maximal inhibitory concentration (IC50) at human Nav1.7 was 394 ± 19 nM. Also, at hNav1.7, the Ki was determined as 195 ± 30 nM and the Kd was determined as 5150 ± 360 nM.
In the same order, the values of `N#Cc1ccc(Oc2ccc(-c3nc(C(N)=O)cc([C@@H](O)CO)n3)cc2)cc1C(F)(F)F` [compound 12] are 384 ± 29 nM, 400 ± 90 nM and 8670 ± 990 nM.
`NC(=O)c1cc([C@@H](O)CO)nc(-c2ccc(Oc3ccc(C(F)(F)F)cc3)cc2)n1` [compound 18]: the IC50 at human Nav1.7 is 135 ± 28 nM.
On to `COC(=O)[C@H](C)NC(=O)c1cc([C@H](O)CO)nc(-c2ccc(Oc3ccc(F)cc3)cc2)n1` [compound 14], for which, on human Nav1.7, the IC50 is 1920 ± 401 nM.
Same read-out and setting: as for `N#Cc1ccc(Oc2ccc(-c3nc(C(N)=O)cc([C@H](O)CO)n3)cc2)c(C(F)(F)F)c1` [compound 5], the figure is 526 ± 129 nM.
Consider `NC(=O)c1cc([C@@H](O)CO)nc(-c2ccc(Oc3ccc(Cl)cc3F)cc2)n1` [compound 9], for which the IC50 at human Nav1.7 stood at 67 ± 5 nM. In addition, on hNav1.7, the Ki worked out at 27 ± 0.3 nM and the Kd amounted to 1040 ± 230 nM.
With `NC(=O)c1cc([C@H](O)CO)nc(-c2ccc(Oc3ccc(Cl)cc3F)cc2)n1` [compound 10], the IC50 on human Nav1.7 came to 84 ± 29 nM.
For the molecule `C[C@H](NC(=O)c1cc([C@H](O)CO)nc(-c2ccc(Oc3ccc(F)cc3)cc2)n1)C(N)=O` [compound 16], the IC50 at human Nav1.7 amounted to 593 ± 4 nM. Also, at hNav1.7, the Ki was determined as 643 ± 190 nM and the Kd turned out to be 154000 ± 54400 nM.
